Data from patent US9963474B2, “Mitochondria-targeted dicarbonyl sequestering compounds” (MEDICAL RESEARCH COUNCIL, priority 2013, dated 2018).

Columns and labels:
[1] = 25° C., literature [49]; cited from earlier work
[2] = Stability of compounds assessed by RP-HPLC; assay type: physicochemical; conditions: 37° C., one week, RP-HPLC
Method: (§1) RP-HPLC was performed using a Gilson 321 pump with a C18 column (Jupiter 300 Å, Phenomenex) with a Widepore C18 guard column (Phenomenex). Samples (1 ml) were injected through a 0.22 μm PVDF filter (Millex, Millipore). HPLC buffer A [0.1% TFA in water] and HPLC buffer B (90% acetonitrile and 0.1% TFA) were used and a gradient was run at 1 ml/min at room temperature as follows: 0-2 min—5% B; 2-17 min—5-100% B; 17-19 min—100% B; 19-22 min—100-5% B. Peaks were detected by absorbance at 220 nm (UV/Vis 151, Gilson) and by fluorescence (excitation and emission wavelengths of 344 and 433 nm; RF-10AXL, Shimadzu). Partition coefficients between PBS and octan-1-ol were determined as previously described.
The syntheses of MitoG, its predicted quinoxaline products upon reaction with methylglyoxal and glyoxal, and their deuterated versions are summarized in FIG. 2. As expected, the spectrum of MitoG was a summation of those of the phenylenediamine, hexyloxyphenylenediamine (HP), and a simple alkylTPP salt.
The expected products of the reaction of MitoG with methylglyoxal (MQE) and glyoxal (QE) were synthesized and have UV/Vis absorption spectra distinct from that of MitoG (FIG. 3B). Both QE and MQE were fluorescent, while MitoG was not (FIG. 3C). The three compounds were resolved by RP-HPLC (FIG. 3D) although the MQE regioisomers (MQE1, MQE2; FIG. 1B) were not distinguished. Both MQE and QE were stable after one week at 37° C. as assessed by RP-HPLC (data not shown). It was concluded that MitoG is sufficiently stable for biological experiments involving trapping of glyoxal and methylglyoxal within mitochondria in cells and in vivo, and the reaction products MQE and QE were both robustly stable for chemical isolation and subsequent LC-MS/MS analyses.

[3] = Partition coefficients between PBS and octan-1-ol; assay type: physicochemical; conditions: means ± SE of 3 determinations
Method: as §1

Row | SMILES | rate constant for reaction with methylglyoxal, reported value [1] [M⁻¹ s⁻¹] | stability after one week [2] | Partition coefficient [3] | logD ([3]; octan-1-ol/PBS, read-out: Partition coefficient (converted))
1 | Nc1ccccc1N [o-phenylenediamine] | 1.7 ± 0.3 | – | – | –
2 | Cc1cnc2cc(OCCCCCC[P+](c3ccccc3)(c3ccccc3)c3ccccc3)ccc2n1.O=C([O-])C(F)(F)F [MQE, (6-(6-(2-Methyl-quinoxalinyloxy))hexyl)triphenylphosphonium trifluoroacetate] | – | stable | 12.3 ± 0.5 | –
3 | O=C([O-])C(F)(F)F.c1ccc([P+](CCCCCCOc2ccc3nccnc3c2)(c2ccccc2)c2ccccc2)cc1 [QE, (6-(6-Quinoxalinyloxy)hexyl)triphenylphosphonium trifluoroacetate] | – | stable | – | 1.13
